The record followed here is ChEMBL document CHEMBL1201862, “PubChem BioAssay data set” (2004).

Assay [1] has as its target T1, Replicative DNA helicase DnaB (Mycobacterium tuberculosis, UniProt P9WMR3).
T1 sequence (P9WMR3 whole entry): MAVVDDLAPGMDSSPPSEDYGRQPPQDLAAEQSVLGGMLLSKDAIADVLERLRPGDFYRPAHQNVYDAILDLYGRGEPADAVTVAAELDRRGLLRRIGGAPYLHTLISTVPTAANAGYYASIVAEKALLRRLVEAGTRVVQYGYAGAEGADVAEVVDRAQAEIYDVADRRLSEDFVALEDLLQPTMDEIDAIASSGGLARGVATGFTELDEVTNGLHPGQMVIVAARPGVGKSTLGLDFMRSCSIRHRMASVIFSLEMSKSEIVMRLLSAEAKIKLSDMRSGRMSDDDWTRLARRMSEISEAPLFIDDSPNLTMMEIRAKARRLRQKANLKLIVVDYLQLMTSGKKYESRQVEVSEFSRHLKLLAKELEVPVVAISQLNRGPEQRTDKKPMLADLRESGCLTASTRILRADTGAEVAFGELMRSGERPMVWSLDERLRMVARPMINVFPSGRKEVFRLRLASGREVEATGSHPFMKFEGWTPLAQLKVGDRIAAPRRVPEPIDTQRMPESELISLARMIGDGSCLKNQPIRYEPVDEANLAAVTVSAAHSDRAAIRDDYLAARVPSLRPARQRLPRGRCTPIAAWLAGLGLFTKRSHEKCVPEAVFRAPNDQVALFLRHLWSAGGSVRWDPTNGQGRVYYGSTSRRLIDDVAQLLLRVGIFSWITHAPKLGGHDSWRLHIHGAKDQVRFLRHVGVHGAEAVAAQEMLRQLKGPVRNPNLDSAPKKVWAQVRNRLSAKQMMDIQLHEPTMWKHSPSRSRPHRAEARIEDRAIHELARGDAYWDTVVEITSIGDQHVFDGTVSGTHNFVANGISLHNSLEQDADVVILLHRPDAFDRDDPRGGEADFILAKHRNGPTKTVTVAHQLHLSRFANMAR
The assay can be described thus: DnaB intein splicing inhibitors, dose response, biochemical, cell-free fluorescence (AID 449749). The format is functional.

Assay [2] has as its target Tyrosyl-DNA phosphodiesterase 2 (Homo sapiens, UniProt O95551). The assay is described as follows: potency against TDP2 phosphodiesterase activity – biochemical, epi absorbance, IC50, dose response (AID 743297).
Another assay deals with Streptococcus. The assay is described as follows: GAS UMAA2166 growth inhibition – luminescence, BacTiterGlo, counter-screen for streptokinase expression inhibitor project, dose response (AID 1915).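 Further: potency for reduction of bacterial viability or growth.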 The format is functional, organism-based.
Assay [3] deals with MAP/microtubule affinity-regulating kinase 3 (Homo sapiens, UniProt P27448). The format is functional.
For assay [4], the target named is Non-receptor tyrosine-protein kinase TYK2 (Homo sapiens, UniProt P29597). The format is functional.
For assay [5], the target named is Serine/threonine-protein kinase pim-2 (Homo sapiens, UniProt Q9P1W9). The format is functional.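 Further: value comes from a broad kinase panel profiling study in which PIM2 was one of the panel members.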
Assay [6] concerns the target Calcium/calmodulin-dependent protein kinase type 1 (Homo sapiens, UniProt Q14012). The format is functional.
Assay [7] has as its target Serine/threonine-protein kinase D2 (Homo sapiens, UniProt Q9BZL6). The format is functional.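 Further: measured against PRKD2 as one member of a kinome-wide kinase profiling panel.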
A further assay addresses Misshapen-like kinase 1 (Homo sapiens, UniProt Q8N4C8). The format is functional.
Assay [8] concerns the target Tyrosine-protein kinase receptor UFO (Homo sapiens, UniProt P30530). The format is functional.
Assay [9] addresses Protein kinase C delta type (Homo sapiens, UniProt Q05655). The format is functional.
Assay [10] concerns the target Testis-specific serine/threonine-protein kinase 2 (Homo sapiens, UniProt Q96PF2). The format is functional.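 Further: part of the Navigating the Kinome panel, target entry STK22B.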
Assay [11] has as its target Mitogen-activated protein kinase 1 (Homo sapiens, UniProt P28482). The format is functional.
Assay [12] addresses Tyrosine-protein kinase Srms (Homo sapiens, UniProt Q9H3Y6). The format is functional.
The target in assay [13] is Serine/threonine-protein kinase PLK4 (Homo sapiens, UniProt O00444). The format is functional.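 Further: PLK4 measured as one member of a kinome-wide kinase profiling panel.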
The target in assay [14] is MAP kinase-activated protein kinase 2 (Homo sapiens, UniProt P49137). The format is functional.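 Further: measured as one member of a kinome-wide kinase panel.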
The target in assay [15] is Serine/threonine-protein kinase DCLK1 (Homo sapiens, UniProt O15075). The format is functional.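 Further: affinity for DCLK1 (listed as DCAMKL1) measured as one member of a kinome-wide kinase profiling panel.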
Assay [16] addresses Megakaryocyte-associated tyrosine-protein kinase (Homo sapiens, UniProt P42679). The format is functional.
The next assay concerns the target Ephrin type-A receptor 2 (Homo sapiens, UniProt P29317). The format is functional.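 Further: EPHA2 tested as one member of a kinome-wide kinase panel.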
Assay [17] addresses Interleukin-1 receptor-associated kinase 4 (Homo sapiens, UniProt Q9NWZ3). The format is functional.
Assay [18] has as its target Phosphorylase b kinase gamma catalytic chain, liver/testis isoform (Homo sapiens, UniProt P15735). The format is functional.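 Further: PHKG2 measured as one member of a kinome-wide kinase panel.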
Assay [19] concerns the target MAP kinase-interacting serine/threonine-protein kinase 2 (Homo sapiens, UniProt Q9HBH9). The format is functional.
Assay [20] deals with Serine/threonine-protein kinase 17A (Homo sapiens, UniProt Q9UEE5). The format is functional.
Assay [21] addresses MAP kinase-activated protein kinase 5 (Homo sapiens, UniProt Q8IW41). The format is functional.

Calls of active or inactive are those of the source.

Chain of Tyrosine-protein kinase receptor UFO (P30530 whole entry): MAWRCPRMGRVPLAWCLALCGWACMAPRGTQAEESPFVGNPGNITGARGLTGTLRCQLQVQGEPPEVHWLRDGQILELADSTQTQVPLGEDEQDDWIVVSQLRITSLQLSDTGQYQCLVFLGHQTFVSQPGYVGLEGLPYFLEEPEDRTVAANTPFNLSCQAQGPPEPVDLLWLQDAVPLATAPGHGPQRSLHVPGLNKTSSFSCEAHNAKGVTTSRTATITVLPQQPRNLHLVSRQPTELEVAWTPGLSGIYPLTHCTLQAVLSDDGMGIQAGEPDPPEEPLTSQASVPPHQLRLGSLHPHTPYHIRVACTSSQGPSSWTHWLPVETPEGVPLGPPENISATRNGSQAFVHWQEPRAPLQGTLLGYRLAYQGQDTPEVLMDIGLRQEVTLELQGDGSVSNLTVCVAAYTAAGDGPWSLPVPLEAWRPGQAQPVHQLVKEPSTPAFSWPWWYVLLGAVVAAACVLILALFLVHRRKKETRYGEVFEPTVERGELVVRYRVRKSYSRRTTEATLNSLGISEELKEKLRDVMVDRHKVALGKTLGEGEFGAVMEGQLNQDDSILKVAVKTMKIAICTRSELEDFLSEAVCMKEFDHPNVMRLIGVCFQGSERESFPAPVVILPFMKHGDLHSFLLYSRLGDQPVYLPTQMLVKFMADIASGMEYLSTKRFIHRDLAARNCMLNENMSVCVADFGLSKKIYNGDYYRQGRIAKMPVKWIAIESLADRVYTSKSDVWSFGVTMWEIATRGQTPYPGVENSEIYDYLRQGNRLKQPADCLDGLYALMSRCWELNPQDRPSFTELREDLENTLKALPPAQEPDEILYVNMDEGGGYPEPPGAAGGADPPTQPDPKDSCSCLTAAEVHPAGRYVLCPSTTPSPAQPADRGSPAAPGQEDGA
Chain of Serine/threonine-protein kinase DCLK1 (O15075 whole entry): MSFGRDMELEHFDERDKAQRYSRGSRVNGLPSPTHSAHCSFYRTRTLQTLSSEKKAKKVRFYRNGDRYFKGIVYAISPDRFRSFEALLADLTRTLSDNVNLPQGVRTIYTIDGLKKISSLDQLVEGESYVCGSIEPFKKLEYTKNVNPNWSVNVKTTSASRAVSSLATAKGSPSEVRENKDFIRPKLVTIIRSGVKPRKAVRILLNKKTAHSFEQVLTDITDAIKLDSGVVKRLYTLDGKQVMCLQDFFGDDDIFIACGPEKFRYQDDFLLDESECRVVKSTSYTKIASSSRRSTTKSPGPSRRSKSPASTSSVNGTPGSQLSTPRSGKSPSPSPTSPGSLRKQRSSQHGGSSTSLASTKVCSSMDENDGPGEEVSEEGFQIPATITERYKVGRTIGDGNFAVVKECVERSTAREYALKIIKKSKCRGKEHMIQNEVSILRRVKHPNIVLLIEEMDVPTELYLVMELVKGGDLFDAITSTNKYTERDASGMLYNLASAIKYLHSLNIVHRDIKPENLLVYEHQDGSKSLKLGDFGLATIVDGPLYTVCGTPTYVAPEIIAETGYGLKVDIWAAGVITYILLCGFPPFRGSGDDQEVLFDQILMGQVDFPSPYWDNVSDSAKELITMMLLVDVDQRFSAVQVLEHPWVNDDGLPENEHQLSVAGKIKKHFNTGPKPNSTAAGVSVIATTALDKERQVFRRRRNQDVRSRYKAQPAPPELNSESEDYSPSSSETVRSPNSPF
Chain of Mitogen-activated protein kinase 1 (P28482 whole entry): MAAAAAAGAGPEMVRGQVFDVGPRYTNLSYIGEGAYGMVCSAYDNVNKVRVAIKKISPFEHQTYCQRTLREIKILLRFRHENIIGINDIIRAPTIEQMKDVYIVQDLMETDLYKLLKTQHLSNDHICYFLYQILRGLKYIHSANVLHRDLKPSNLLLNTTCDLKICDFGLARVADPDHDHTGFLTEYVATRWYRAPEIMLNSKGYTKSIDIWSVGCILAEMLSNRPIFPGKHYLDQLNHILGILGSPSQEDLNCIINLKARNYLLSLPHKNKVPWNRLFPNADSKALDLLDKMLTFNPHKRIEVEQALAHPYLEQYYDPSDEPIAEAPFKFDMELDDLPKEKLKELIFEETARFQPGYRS
Chain of Tyrosyl-DNA phosphodiesterase 2 (O95551 whole entry): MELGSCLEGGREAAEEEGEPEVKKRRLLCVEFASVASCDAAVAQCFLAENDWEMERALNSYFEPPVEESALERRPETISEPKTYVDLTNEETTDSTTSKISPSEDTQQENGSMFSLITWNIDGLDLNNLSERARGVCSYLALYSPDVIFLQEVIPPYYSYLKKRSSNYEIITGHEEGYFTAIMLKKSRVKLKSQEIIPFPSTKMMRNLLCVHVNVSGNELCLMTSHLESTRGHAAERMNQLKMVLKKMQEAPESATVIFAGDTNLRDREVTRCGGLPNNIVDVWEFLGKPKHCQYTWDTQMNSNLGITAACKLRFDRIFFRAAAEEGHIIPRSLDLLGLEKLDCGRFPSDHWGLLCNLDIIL
Chain of Misshapen-like kinase 1 (Q8N4C8 whole entry): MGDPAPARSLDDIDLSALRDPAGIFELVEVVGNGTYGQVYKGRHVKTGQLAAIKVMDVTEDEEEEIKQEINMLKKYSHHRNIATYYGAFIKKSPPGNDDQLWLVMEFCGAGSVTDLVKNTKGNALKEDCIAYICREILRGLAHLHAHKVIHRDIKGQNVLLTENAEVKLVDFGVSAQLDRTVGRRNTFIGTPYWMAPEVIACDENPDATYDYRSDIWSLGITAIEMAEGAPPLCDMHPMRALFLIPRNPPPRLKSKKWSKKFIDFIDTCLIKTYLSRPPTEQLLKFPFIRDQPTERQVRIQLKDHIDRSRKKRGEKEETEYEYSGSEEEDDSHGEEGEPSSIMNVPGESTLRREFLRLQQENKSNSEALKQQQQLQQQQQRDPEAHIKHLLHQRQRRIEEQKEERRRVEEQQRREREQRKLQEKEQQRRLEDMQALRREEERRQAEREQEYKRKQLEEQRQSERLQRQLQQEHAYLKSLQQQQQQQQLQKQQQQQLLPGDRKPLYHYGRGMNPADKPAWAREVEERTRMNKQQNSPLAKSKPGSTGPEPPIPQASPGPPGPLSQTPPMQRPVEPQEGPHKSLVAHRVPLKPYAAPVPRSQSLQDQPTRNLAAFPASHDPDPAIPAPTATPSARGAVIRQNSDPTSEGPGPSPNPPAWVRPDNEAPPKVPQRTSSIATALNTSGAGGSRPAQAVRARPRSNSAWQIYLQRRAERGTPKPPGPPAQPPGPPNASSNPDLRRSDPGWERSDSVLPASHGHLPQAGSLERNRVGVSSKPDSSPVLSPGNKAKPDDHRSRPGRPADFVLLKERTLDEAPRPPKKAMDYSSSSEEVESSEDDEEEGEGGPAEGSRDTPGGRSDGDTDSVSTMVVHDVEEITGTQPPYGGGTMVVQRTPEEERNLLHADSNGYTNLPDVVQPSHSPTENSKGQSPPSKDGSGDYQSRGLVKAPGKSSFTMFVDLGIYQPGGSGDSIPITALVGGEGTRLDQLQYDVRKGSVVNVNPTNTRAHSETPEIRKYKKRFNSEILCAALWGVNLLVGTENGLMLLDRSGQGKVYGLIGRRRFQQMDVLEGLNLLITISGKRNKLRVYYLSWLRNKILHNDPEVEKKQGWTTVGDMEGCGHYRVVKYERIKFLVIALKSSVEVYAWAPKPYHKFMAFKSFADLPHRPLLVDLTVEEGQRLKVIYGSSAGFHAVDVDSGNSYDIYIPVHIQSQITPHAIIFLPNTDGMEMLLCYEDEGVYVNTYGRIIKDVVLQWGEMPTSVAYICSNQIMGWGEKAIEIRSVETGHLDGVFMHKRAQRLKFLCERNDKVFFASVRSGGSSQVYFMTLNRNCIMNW
Chain of Testis-specific serine/threonine-protein kinase 2 (Q96PF2 whole entry): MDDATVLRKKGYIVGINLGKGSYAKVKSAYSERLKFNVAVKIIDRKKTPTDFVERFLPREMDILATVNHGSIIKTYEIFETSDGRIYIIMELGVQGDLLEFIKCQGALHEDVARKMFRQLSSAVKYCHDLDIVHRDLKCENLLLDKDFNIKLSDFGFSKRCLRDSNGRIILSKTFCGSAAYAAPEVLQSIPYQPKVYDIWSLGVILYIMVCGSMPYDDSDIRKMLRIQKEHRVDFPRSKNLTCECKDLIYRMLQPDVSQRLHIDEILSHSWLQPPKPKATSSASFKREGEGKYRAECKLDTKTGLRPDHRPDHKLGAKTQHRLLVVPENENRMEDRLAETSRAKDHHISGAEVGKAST
Chain of Serine/threonine-protein kinase D2 (Q9BZL6 whole entry): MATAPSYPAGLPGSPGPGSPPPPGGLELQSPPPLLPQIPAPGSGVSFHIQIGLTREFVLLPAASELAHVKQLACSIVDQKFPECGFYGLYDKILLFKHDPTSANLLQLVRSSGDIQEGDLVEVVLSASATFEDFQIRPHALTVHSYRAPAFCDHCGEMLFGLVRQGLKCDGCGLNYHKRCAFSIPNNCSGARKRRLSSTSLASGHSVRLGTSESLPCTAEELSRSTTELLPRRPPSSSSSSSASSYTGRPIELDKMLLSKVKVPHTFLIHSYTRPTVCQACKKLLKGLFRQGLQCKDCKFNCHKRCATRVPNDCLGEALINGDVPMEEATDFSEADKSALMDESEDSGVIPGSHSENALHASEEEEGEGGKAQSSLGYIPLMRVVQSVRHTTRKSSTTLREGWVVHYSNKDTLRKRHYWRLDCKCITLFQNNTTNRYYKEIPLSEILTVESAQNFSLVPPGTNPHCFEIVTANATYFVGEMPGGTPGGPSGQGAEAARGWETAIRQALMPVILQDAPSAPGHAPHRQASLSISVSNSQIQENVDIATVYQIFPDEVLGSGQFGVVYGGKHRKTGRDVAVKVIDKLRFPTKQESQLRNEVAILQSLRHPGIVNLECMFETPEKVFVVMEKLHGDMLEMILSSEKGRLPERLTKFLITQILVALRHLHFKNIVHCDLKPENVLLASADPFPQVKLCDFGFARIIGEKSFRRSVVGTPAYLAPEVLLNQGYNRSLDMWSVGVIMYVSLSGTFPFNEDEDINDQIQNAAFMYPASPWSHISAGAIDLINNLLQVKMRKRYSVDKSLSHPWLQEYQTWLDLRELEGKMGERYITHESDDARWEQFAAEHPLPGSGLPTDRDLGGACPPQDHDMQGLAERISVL

Regarding `Cc1ccc(NC2=C(NCCO)C(=O)c3ccccc3C2=O)cc1`, the AC50 (usually the midpoint of the concentration-response curve, whichever way the signal moves) in assay [1] is 40.3 µM (active). In addition, the IC50 (commonly the concentration that inhibits the measured activity by half) in assay [2] is 65.1 µM (inactive).

For the molecule `CC(/C=C1\SC(=S)N(NS(=O)(=O)c2ccc(C)cc2)C1=O)=C\c1ccccc1`, the EC50 (in general, the concentration needed to bring the measured effect to its halfway point) with Streptococcus was 8.34 µM (active).

Consider `CN1CCC(c2c(O)cc(O)c3c(=O)cc(-c4ccccc4Cl)oc23)C(O)C1` (stereo not given), for which the Ki (commonly a dissociation constant, usually derived from enzyme kinetics or from competition with a known ligand) in assay [3] is > 6.31 µM (inactive); in [4], > 2 µM (inactive); in assay [5] it was 1 µM (active); in assay [6] it was > 3.16 µM (inactive); in assay [7], 1.26 µM (active); at Misshapen-like kinase 1, > 7.94 µM (inactive). In addition, the inhibitory constant (Ki) in assay [8] was 1 µM (active); in assay [9] it was 1.26 µM (active); in assay [10], > 1.58 µM (inactive); in assay [11] it was > 7.94 µM (inactive); in [12], > 1.58 µM (inactive); in assay [13] it was 3.16 µM (active). The Ki in [14] was > 7.94 µM (inactive); in [15], > 10 µM (inactive); in assay [16] it was 0.316 µM (active); at Ephrin type-A receptor 2, 2 µM (active); in assay [17] it was 5.01 µM (active); in assay [18], > 5.01 µM (inactive). Moreover, the Ki in assay [19] was 5.01 µM (active); in [20], > 3.98 µM (inactive); in assay [21] it was > 1.58 µM (inactive). Besides, the pKi (in general, the negative decadic logarithm of the Ki, by convention in mol/L) in [8] is 6.
